Experimental data taken from patent US12421211B2, “Heterocyclic compounds” (Hoffmann-La Roche Inc., priority 2021, dated 2025).
Where a name gives a salt, the structure may show the parent alone.

Each compound was assayed on Acinetobacter baumannii ATCC17961 (assay: Antimicrobial susceptibility testing: 90% growth inhibitory concentration (IC90) determination). Details: Acinetobacter baumannii, ATCC17961, 16 h, 90% growth inhibitory concentration, Acinetobacter baumannii ATCC17961, Iso-Sensitest broth, OD 600 nm over 16 h; read-out: ATCC 17961 IC90.
Assay type: cell-based
In short: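 Growth inhibition derived in log phase from OD600 kinetics (every 20 minutes, 16h, 35±2° C) of ATCC17961 in Iso-Sensitest medium, inoculum ~5×10^5 CFU/ml. Compounds tested as twofold series, 10 points (e.g. 50 to 0.097 μM final); IC90 and IC50 reported.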

IC90 [nM] | Structure (SMILES)
48 | COCCn1ncc(-c2ccc(-c3cnc(C(=O)Nc4ccc(C(=O)N5CCN(C(=O)C[C@@H]6CCNC6)CC5)c(Cl)c4)n3C)c(F)c2F)c1C [Example E2, N-[3-chloro-4-[4-[2-[(3S)-pyrrolidin-3-yl]acetyl]piperazine-1-carbonyl]phenyl]-5-[2,3-difluoro-4-[1-(2-methoxyethyl)-5-methyl-pyrazol-4-yl]phenyl]-1-methyl-imidazole-2-carboxamide; formic acid]
490 | COCCn1ncc(-c2ccc(-c3cnc(C(=O)Nc4ccc(C(=O)N5CCN(C(=O)C6CCNCC6)CC5)c(Cl)c4)n3C)c(F)c2C)c1C [Example E3, N-[3-chloro-4-[4-(piperidine-4-carbonyl)piperazine-1-carbonyl]phenyl]-5-[2-fluoro-4-[1-(2-methoxyethyl)-5-methyl-pyrazol-4-yl]-3-methyl-phenyl]-1-methyl-imidazole-2-carboxamide; formic acid]
180 | COCCn1ncc(-c2ccc(-c3cnc(C(=O)Nc4ccc(C(=O)N5CCN(C(=O)C6CCNCC6)CC5)c(Cl)c4)n3C)c(C)c2F)c1C [Example E5, N-[3-chloro-4-[4-(piperidine-4-carbonyl)piperazine-1-carbonyl]phenyl]-5-[3-fluoro-4-[1-(2-methoxyethyl)-5-methyl-pyrazol-4-yl]-2-methyl-phenyl]-1-methyl-imidazole-2-carboxamide; formic acid]

More lines, now with the values behind:

Structure (SMILES) | IC90 [nM]
COCCn1ncc(-c2ccc(-c3cnc(C(=O)Nc4ccc(C(=O)N[C@H]5[C@@H]6CN(C(=O)[C@@H]7C[C@@H](O)C[N+]7(C)C)C[C@@H]65)c(Cl)c4)n3C)c(F)c2F)c1C [Example D40, N-[3-chloro-4-[[(1S,5R)-3-[(2S,4R)-4-hydroxy-1,1-dimethyl-pyrrolidin-1-ium-2-carbonyl]-3-azabicyclo[3.10]hexan-6-yl]carbamoyl]phenyl]-5-[2,3-difluoro-4-[1-(2-methoxyethyl)-3,5-dimethyl-pyrazol-4-yl]phenyl]-1-methyl-imidazole-2-carboxamide; formate] | 77
Cc1n[nH]cc1-c1ccc(-c2cnc(C(=O)Nc3ccc(C(=O)N4CCN(C(=O)CCC[N+](CCCN)(CCCN)CC(=O)O)CC4)c(Cl)c3)n2C)c(F)c1F [Example D41, bis(3-aminopropyl)-(carboxymethyl)-[4-[4-[2-chloro-4-[[5-[2,3-difluoro-4-(3-methyl-1H-pyrazol-4-yl)phenyl]-1-methyl-imidazole-2-carbonyl]amino]benzoyl]piperazin-1-yl]-4-oxo-butyl]ammonium; formic acid; formate] | 61
Cc1n[nH]cc1-c1ccc(-c2cnc(C(=O)Nc3ccc(C(=O)N4CCN(C(=O)CCC[N+](CC(=O)O)(CC5CNC5)CC5CNC5)CC4)c(Cl)c3)n2C)c(F)c1F [Example D42, bis(azetidin-3-ylmethyl)-(carboxymethyl)-[4-[4-[2-chloro-4-[[5-[2,3-difluoro-4-(3-methyl-1H-pyrazol-4-yl)phenyl]-1-methyl-imidazole-2-carbonyl]amino]benzoyl]piperazin-1-yl]-4-oxo-butyl]ammonium; formic acid; formate] | 60
COCCn1ncc(-c2ccc(-c3cnc(C(=O)Nc4ccc(C(=O)N5CCN(C(=O)C6(OC)CCNCC6)CC5)c(Cl)c4)n3C)c(F)c2F)c1C [Example D44, N-[3-chloro-4-[4-(4-methoxypiperidine-4-carbonyl)piperazine-1-carbonyl]phenyl]-5-[2,3-difluoro-4-[1-(2-methoxyethyl)-5-methyl-pyrazol-4-yl]phenyl]-1-methyl-imidazole-2-carboxamide] | 160

Same assay, conditions: Acinetobacter baumannii, ATCC17961, 16 h, read-out: ATCC 17961 IC90

Structure (SMILES) | IC90 [nM]
Cc1n[nH]c(C)c1-c1ccc(-c2cnc(C(=O)Nc3ccc(C(=O)N4CCN(C(=O)[C@@H]5C[C@@H](O)C[N+]5(C)C)CC4)c(Cl)c3)n2C)c(F)c1F [Example D43, N-[3-chloro-4-[4-[(2S,4R)-4-hydroxy-1,1-dimethyl-pyrrolidin-1-ium-2-carbonyl]piperazine-1-carbonyl]phenyl]-5-[4-(3,5-dimethyl-1H-pyrazol-4-yl)-2,3-difluoro-phenyl]-1-methyl-imidazole-2-carboxamide; formate] | 810
